The values that follow come from patent US8158851B2, “Transgenic high tryptophan plants” (Monsanto Technology LLC, priority 2002, dated 2012).

Like-named read-outs stand apart in the source and are kept apart here.

In assay [1] the target is T1, Agrobacterium tumefaciens anthranilate synthase S50K mutant, SEQ ID NO: 69 (Agrobacterium fabrum, UniProt A9CI26, S50K).
T1 construct: no tag mentioned
Nature of the assay: Anthranilate synthase assay, S50K mutant. Format: biochemical. As to conditions: 25° C. An excerpt:
(§1) Site directed mutagenesis was used to generate ten single amino acid substitutions six sites. The mutations were introduced into the Agrobacterium tumefaciens AS in pMON34705 using the QuikChange™ Site-Directed Mutagenesis Kit (Stratagene). The primers used for site directed mutagenesis were SEQ ID NOs: 9-42 (FIG. 7; F=forward, R=reverse). Each primer sequence is specific for alteration of the nucleic acid at a specific location in the sequence and thus changing the encoded codon to code for a new amino acid. For example, S51C designates a change from serine to cysteine at amino acid position 51 in the Agrobacterium tumefaciens AS peptide sequence.
(§2) Following mutagenesis the sequence of the entire gene was reconfirmed and the variants expressed and purified from E. coli as described below for the wild type enzyme. The resultant plasmids comprising mutant Agrobacterium tumefaciens AS are suitably cloned into a plasmid for overproduction of protein using the T7 expression system as described in Example 1.
(§3) Agrobacterium tumefaciens AS wild type and mutant enzymes were expressed in E. coli as described in Example 1. The purification of all the Agrobacterium tumefaciens AS enzymes, including wild type and mutants thereof, was performed at 4° C. The cells (approximate wet weight of 1 g) were suspended in 20 ml of purification buffer (50 mM potassium phosphate, pH 7.3, 10 mM MgCl2, 10 mM 2-mercaptoethanol, 10% glycerol) and lysed by ultrasonication (Branson sonifier Cell Disruptor, W185). Supernatant was collected after centrifugation of the homogenate at 20,000×g for 15 min. The supernatant was subjected to ammonium sulfate fractionation (30 to 65% saturation). The precipitate was collected after centrifugation at 20,000×g for 15 min and dissolved in 3 ml of the purification buffer and then loaded as a whole on an Econo-Pac 10DG desalting column, pre-equilibrated with the same buffer. Fractions containing the enzyme were detected by the developed assay and pooled. The pooled enzyme (4.3 mls) was loaded on a 10 ml DEAF Sephacel (Pharmacia Biotech) column (1.5×7.5 cm) equilibrated with the same buffer. […]
(§4) The standard assay for Agrobacterium tumefaciens AS was performed at 25° C. in an assay buffer containing 100 mM potassium phosphate, pH 7.0, 10 mM MgCl2, 1 mM dithiothreitol, 200 μM chorismate and 10 mM L-glutamine. […] The formation of anthranilate was directly monitored by the absorbance increase at 320 m for 3 minutes. Initial rate of reaction was calculated as unit absorbance increase per second based on the slope of the absorbance change over the reaction time. […] Kinetic parameters and IC50 of AS were calculated after fitting the data to a non-linear regression program (GraFit).

For assay [2], the target named is T2, Agrobacterium tumefaciens anthranilate synthase V48Y mutant, SEQ ID NO: 59 (Agrobacterium fabrum, UniProt A9CI26, V48Y).
T2 construct: no tag mentioned
T2 sequence (A9CI26 whole entry V48Y): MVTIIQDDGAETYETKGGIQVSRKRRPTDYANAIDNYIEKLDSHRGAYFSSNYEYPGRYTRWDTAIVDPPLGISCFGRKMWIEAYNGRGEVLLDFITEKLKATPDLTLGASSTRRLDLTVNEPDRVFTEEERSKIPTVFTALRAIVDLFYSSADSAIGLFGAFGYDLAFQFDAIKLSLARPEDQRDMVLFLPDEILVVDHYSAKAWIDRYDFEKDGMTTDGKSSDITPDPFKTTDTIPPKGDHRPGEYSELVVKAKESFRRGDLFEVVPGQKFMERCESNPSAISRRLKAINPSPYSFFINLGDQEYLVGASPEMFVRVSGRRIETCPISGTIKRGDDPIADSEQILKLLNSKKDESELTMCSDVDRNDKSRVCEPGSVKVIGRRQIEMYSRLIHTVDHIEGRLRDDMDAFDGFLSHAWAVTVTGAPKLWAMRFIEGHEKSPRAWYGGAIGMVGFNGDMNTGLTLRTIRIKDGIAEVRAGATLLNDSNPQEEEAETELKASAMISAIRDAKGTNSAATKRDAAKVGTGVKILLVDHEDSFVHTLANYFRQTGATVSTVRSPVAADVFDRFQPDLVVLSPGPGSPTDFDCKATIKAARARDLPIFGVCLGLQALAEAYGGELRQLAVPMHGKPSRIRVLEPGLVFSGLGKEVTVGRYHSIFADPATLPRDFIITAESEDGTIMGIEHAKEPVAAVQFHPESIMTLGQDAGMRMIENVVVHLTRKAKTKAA
Nature of the assay: Anthranilate synthase assay, V48Y mutant. It is filed as biochemical. As to conditions: 25° C.
From the text: as §1, §2, §3, §4

Assay [3] addresses T3, Agrobacterium tumefaciens anthranilate synthase N52F mutant, SEQ ID NO: 62 (Agrobacterium fabrum, UniProt A9CI26, N52F).
T3 construct: no tag mentioned
In words: Anthranilate synthase assay, N52F mutant. Format: biochemical. To be noted: 25° C.
From the text: as §1, §2, §3, §4

The target in assay [4] is T4, Agrobacterium tumefaciens anthranilate synthase S51C mutant, SEQ ID NO: 61 (Agrobacterium fabrum, UniProt A9CI26, S51C).
T4 construct: no tag mentioned
T4 sequence (A9CI26 whole entry S51C): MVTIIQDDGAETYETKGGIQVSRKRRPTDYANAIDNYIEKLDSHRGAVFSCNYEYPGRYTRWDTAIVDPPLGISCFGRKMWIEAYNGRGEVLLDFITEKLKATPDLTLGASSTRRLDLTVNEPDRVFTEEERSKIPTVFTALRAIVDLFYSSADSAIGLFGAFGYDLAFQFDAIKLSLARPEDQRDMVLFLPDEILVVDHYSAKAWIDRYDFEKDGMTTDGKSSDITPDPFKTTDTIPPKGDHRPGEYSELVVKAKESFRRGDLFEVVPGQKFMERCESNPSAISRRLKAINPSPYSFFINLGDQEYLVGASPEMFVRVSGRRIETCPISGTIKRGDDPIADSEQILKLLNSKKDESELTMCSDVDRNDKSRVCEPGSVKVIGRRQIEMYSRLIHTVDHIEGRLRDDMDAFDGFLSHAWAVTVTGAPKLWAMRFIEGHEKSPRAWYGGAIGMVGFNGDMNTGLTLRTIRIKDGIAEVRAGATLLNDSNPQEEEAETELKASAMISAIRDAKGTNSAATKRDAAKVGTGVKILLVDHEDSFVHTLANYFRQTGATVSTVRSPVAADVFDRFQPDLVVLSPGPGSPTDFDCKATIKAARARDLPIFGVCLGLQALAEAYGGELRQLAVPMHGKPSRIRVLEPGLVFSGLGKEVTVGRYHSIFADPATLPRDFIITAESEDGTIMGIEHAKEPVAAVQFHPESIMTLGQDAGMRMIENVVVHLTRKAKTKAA
In words: Anthranilate synthase assay, S51C mutant. It is filed as biochemical. As to conditions: 25° C.
From the text: as §1, §2, §3, §4

In assay [5] the target is T5, Agrobacterium tumefaciens anthranilate synthase P293G mutant, SEQ ID NO: 64 (Agrobacterium fabrum, UniProt A9CI26, P293G).
T5 construct: no tag mentioned
In words: Anthranilate synthase assay, P293G mutant. It is filed as biochemical. To be noted: 25° C.
From the text: as §1, §2, §3, §4

For assay [6], the target named is T6, Agrobacterium tumefaciens anthranilate synthase V48F mutant, SEQ ID NO: 58 (Agrobacterium fabrum, UniProt A9CI26, V48F).
T6 construct: no tag mentioned
In words: Anthranilate synthase assay, V48F mutant. As to conditions: 25° C. Format: biochemical.
From the text: as §1, §2, §3, §4

Assay [7] addresses T7, Agrobacterium tumefaciens anthranilate synthase S51F mutant, SEQ ID NO: 60 (Agrobacterium fabrum, UniProt A9CI26, S51F).
T7 construct: no tag mentioned
In words: Anthranilate synthase assay, S51F mutant. Format: biochemical. To be noted: 25° C.
From the text: as §1, §2, §3, §4

Assay [8] deals with T8, Agrobacterium tumefaciens anthranilate synthase (AgroAS), wild type, SEQ ID NO: 4 (Agrobacterium fabrum, UniProt A9CI26).
T8 construct: no tag mentioned
T8 sequence (A9CI26 entry or part of it): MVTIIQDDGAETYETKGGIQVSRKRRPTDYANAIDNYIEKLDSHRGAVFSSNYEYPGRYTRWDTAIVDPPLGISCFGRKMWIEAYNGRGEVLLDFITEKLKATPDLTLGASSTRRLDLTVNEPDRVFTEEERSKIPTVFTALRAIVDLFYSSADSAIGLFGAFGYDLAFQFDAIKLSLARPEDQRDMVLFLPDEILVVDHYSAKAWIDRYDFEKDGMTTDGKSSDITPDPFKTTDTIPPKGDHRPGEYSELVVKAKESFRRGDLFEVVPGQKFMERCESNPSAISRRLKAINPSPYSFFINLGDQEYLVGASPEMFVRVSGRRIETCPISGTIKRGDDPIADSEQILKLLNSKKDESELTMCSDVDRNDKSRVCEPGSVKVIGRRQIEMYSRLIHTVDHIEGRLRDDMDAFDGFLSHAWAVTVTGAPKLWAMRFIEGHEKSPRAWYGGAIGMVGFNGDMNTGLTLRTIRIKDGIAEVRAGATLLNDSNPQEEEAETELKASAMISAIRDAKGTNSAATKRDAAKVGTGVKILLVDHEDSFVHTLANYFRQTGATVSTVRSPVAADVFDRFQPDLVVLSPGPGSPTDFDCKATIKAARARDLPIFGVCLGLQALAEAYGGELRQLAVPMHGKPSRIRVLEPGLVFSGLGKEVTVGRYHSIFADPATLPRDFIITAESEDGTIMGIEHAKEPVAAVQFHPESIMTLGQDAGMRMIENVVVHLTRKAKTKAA
In words: Anthranilate synthase assay, anthranilate formation by absorbance at 320 nm. It is filed as biochemical. To be noted: 25° C. The method, then: Agrobacterium tumefaciens AS wild type and mutant enzymes were expressed in E. coli as described in Example 1. The purification of all the Agrobacterium tumefaciens AS enzymes, including wild type and mutants thereof, was performed at 4° C. The cells (approximate wet weight of 1 g) were suspended in 20 ml of purification buffer (50 mM potassium phosphate, pH 7.3, 10 mM MgCl2, 10 mM 2-mercaptoethanol, 10% glycerol) and lysed by ultrasonication (Branson sonifier Cell Disruptor, W185). Supernatant was collected after centrifugation of the homogenate at 20,000×g for 15 min. The supernatant was subjected to ammonium sulfate fractionation (30 to 65% saturation). The precipitate was collected after centrifugation at 20,000×g for 15 min and dissolved in 3 ml of the purification buffer and then loaded as a whole on an Econo-Pac 10DG desalting column, pre-equilibrated with the same buffer. Fractions containing the enzyme were detected by the developed assay and pooled. The pooled enzyme (4.3 mls) was loaded on a 10 ml DEAF Sephacel (Pharmacia Biotech) column (1.5×7.5 cm) equilibrated with the same buffer. The column was washed with 30 ml of the purification buffer and the enzyme was eluted with 30 ml of 50 mM NaCl in the same buffer. Fractions containing high AS activity were pooled and precipitated by 65% ammonium sulfate saturation and isolated and desalted as above. Fractions containing the enzyme were pooled and stored at −80° C.
The standard assay for Agrobacterium tumefaciens AS was performed at 25° C. in an assay buffer containing 100 mM potassium phosphate, pH 7.0, 10 mM MgCl2, 1 mM dithiothreitol, 200 μM chorismate and 10 mM L-glutamine. The reaction was started by adding 30 μl of enzyme to the reaction mixture and mixing. The formation of anthranilate was directly monitored by the absorbance increase at 320 m for 3 minutes. Initial rate of reaction was calculated as unit absorbance increase per second based on the slope of the absorbance change over the reaction time. Km for chorismate (Km^Cho) was determined in the total volume of 1 ml assay buffer containing 100 mM potassium phosphate, pH 7.0, 10 mM MgCl2, 1 mM dithiothreitol with 10 mM L-glutamine and varying the concentration of chorismate between 2.5-100 μM chorismate. The Km for glutamine (Km^Gln) was determined in the total volume of 1 ml assay buffer containing 100 mM potassium phosphate, pH 7.0, 10 mM MgCl2, 1 mM dithiothreitol with 200 μM chorismate and varying the concentration of L-glutamine between 0.1-2 mM L-glutamine. […] Kinetic parameters and IC50 of AS were calculated after fitting the data to a non-linear regression program (GraFit).

Assay [9] has as its target T9, Agrobacterium tumefaciens anthranilate synthase P293A mutant, SEQ ID NO: 63 (Agrobacterium fabrum, UniProt A9CI26, P293A).
T9 construct: no tag mentioned
Nature of the assay: Anthranilate synthase assay, P293A mutant. As to conditions: 25° C. Format: biochemical.
From the text: as §1, §2, §3, §4

A further assay has as its system soy seed. In words: Free amino acid analysis of soy seed (tryptophan content). It is filed as in vivo, Glycine max. To be noted: R1 soy seeds expressing the mutant protein. The method, then:
Amino Acid Extraction: About 50 mg of crushed soy seed (5 mg of Arabidopsis) material was placed in each centrifuge vial. One milliliter of 5% trichloroacetic acid was added to each sample (100 μl for Arabidopsis). The samples were vortexed, and allowed to sit, with agitation, at room temperature for 15 min. They were then microcentrifuged for 15 min at 14000 rpm. Some of the supernatant was then removed, placed in a HPLC vial and sealed. Samples were kept at 4° C. in the analysis queue.
Amino Acid Analysis: The reagents utilized for amino acid analysis included the OPA reagent (o-phthalaldehyde and 3-mercaptopropionic acid in borate buffer (Hewlett-Packard, PN 5061-3335)) where the borate buffer (0.4 N in water, pH 10.2). The analysis was performed using the Agilent 1100 series HPLC system as described in the Agilent Technical Publication, “Amino Acid Analysis Using Zorbax Eclipse-AAA Columns and the Agilent 1100 HPLC”, Mar. 17, 2000. First, 0.5 μl of the sample was derivatized with 2.5 μl of OPA reagent in 10 μl of borate buffer. Second, the derivative is injected onto a Eclipse XDB-C18 5 μm, 4.6×150 mm column using a flow rate of 1.2 ml/min. Amino acid concentrations were measured using fluorescence: excitation at 340 nm, emission at 450 nm. Elution was with a gradient of HPLC Buffers A and B according to Table A, where HPLC Buffer A was 40 mM Na2HPO4, pH=7.8 and HPLC Buffer B was 9:9:2::Methanol:Acetonitrile:Water.
Amino acid standards were prepared from the dry chemicals, using all amino acids of interest. Proline analysis required an additional derivatization step with 9-fluorenylmethyl-chloroformate (FMOC). Amino acid standards were also sometimes purchased in concentrations ranging from 0 to 100 μg/ml. Samples were reported in μg/g of seed powder.
Mature R1 seed is produced and analyzed for free amino acid content using fluorescence detection as described in Agilent Technologies Technical Bulletin REV14. Five seeds are chosen for single seed analysis from each event. […] The highest levels of tryptophan have a negative impact on germination.

Where [10] appears, read: pH 7.0, 10 mM L-glutamine, 2.5-100 μM chorismate, read-out: Km for chorismate (Km^Cho).
Where [11] appears, read: pH 7.0, 200 μM chorismate, 0.1-2 mM L-glutamine, read-out: Km for glutamine (Km^Gln).

T9 sequence (A9CI26 whole entry P293A): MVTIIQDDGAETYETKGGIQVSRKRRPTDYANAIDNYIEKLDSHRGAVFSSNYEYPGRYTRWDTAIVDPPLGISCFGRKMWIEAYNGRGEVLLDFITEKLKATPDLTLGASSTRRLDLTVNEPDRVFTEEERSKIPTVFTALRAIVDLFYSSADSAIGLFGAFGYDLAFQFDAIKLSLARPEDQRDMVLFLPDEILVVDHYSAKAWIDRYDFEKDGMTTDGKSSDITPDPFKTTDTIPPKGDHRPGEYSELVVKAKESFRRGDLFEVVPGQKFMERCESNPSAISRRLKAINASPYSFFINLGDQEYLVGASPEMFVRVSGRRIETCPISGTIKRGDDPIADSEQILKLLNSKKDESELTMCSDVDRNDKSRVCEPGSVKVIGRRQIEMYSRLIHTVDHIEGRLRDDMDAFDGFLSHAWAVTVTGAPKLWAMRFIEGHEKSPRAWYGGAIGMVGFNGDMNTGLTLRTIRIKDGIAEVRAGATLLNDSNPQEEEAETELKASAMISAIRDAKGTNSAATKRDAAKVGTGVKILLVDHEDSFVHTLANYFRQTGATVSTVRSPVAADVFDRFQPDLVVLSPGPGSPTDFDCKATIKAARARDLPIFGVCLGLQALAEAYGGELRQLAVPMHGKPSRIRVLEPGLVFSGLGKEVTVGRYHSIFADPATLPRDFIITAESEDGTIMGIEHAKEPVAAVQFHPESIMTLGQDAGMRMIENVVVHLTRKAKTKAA
T3 sequence (A9CI26 whole entry N52F): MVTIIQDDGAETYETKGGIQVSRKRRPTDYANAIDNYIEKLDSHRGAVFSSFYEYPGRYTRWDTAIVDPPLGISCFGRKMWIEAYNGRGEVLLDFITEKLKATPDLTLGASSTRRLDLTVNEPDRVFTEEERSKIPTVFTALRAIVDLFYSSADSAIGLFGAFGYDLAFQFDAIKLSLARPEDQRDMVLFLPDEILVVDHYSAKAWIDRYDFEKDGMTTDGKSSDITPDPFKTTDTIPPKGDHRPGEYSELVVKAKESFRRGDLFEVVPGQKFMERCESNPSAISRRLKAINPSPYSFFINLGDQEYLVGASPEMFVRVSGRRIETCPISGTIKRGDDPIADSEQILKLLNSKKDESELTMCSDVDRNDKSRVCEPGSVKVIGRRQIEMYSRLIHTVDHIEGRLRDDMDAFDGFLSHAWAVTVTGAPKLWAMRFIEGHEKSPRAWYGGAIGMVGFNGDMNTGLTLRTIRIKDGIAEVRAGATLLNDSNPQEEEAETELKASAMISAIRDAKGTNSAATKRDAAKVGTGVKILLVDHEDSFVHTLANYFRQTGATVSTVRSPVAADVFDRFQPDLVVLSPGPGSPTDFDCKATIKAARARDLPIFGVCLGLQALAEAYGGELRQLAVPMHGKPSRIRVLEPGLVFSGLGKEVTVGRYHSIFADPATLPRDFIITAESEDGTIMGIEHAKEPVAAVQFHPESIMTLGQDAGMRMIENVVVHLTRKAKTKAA
T7 sequence (A9CI26 whole entry S51F): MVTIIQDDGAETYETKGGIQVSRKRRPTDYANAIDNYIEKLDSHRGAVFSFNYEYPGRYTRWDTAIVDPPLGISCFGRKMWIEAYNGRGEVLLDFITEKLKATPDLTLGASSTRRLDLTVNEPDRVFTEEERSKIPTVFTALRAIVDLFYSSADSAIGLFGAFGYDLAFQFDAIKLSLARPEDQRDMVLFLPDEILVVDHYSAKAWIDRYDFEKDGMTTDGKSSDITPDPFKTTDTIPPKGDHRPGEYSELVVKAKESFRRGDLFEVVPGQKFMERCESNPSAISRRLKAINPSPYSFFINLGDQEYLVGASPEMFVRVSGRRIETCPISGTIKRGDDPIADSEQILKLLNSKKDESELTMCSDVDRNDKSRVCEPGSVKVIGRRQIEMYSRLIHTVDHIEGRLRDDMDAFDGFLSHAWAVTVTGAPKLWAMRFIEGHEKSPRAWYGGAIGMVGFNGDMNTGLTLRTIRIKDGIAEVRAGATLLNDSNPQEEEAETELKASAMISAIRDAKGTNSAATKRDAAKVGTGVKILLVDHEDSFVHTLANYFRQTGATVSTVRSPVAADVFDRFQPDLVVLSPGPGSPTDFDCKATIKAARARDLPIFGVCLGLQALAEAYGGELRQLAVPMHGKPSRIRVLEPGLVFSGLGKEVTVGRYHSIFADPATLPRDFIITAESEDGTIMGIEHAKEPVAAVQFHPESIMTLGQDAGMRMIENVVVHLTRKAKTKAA

One may read the kcat as the number of substrate molecules converted per active site and unit of time at saturation. What is called Km is the concentration of substrate that gives half-maximal velocity. Turning to `C=C(O[C@@H]1C=C(C(=O)O)C=C[C@H]1O)C(=O)O` [chorismate], the kcat was found to be 0.13 s⁻¹ in assay [1] (pH 7.0); 0.18 s⁻¹ in assay [2] (pH 7.0); 0.21 s⁻¹ in assay [3] (pH 7.0); 0.15 s⁻¹ in [4] (pH 7.0); 0.48 s⁻¹ in assay [5] (pH 7.0); 0.24 s⁻¹ in assay [6] (pH 7.0). Moreover, the kcat in assay [7] (pH 7.0) came out at 0.08 s⁻¹; in assay [8] (pH 7.0) it was 0.43 s⁻¹; in [9] (pH 7.0), 0.35 s⁻¹. The “kcat/Km^Cho” value in [1] (pH 7.0) was found to be 10000 M⁻¹ s⁻¹; in assay [2] (pH 7.0), 42800 M⁻¹ s⁻¹; in assay [3] (pH 7.0) it was 38200 M⁻¹ s⁻¹; in assay [4] (pH 7.0) it was 53600 M⁻¹ s⁻¹; in [5] (pH 7.0), 14500 M⁻¹ s⁻¹; in [6] (pH 7.0) it was 53300 M⁻¹ s⁻¹. The “kcat/Km^Cho” value in assay [7] (pH 7.0) stood at 8000 M⁻¹ s⁻¹; in [8] (pH 7.0), 53700 M⁻¹ s⁻¹; in [9] (pH 7.0) it was 14600 M⁻¹ s⁻¹. The Km in assay [1] (setting [10]) was found to be 13 µM; in assay [2] (setting [10]) it was 4.2 µM; in assay [3] (setting [10]) it was 5.5 µM; in assay [4] (setting [10]) it was 2.8 µM; in assay [5] (setting [10]), 33 µM; in [6] (setting [10]), 4.5 µM. Moreover, the Km in assay [7] (setting [10]) is 10 µM; in assay [8] (setting [10]), 8 µM; in [9] (setting [10]), 24 µM.
Consider `NC(=O)CC[C@H](N)C(=O)O` [glutamine, L-glutamine], for which the Km in [1] (setting [11]) worked out at 10 µM; in assay [2] (setting [11]), 100 µM; in assay [3] (setting [11]), 40 µM; in assay [4] (setting [11]), 80 µM; in assay [5] (setting [11]), 70 µM; in [6] (setting [11]), 80 µM. Also, the Km in assay [7] (setting [11]) came to 60 µM; in assay [8] (setting [11]), 110 µM; in assay [9] (setting [11]), 160 µM.

B1: V48F (protein)
chain: MVTIIQDDGAETYETKGGIQVSRKRRPTDYANAIDNYIEKLDSHRGAFFSSNYEYPGRYTRWDTAIVDPPLGISCFGRKMWIEAYNGRGEVLLDFITEKLKATPDLTLGASSTRRLDLTVNEPDRVFTEEERSKIPTVFTALRAIVDLFYSSADSAIGLFGAFGYDLAFQFDAIKLSLARPEDQRDMVLFLPDEILVVDHYSAKAWIDRYDFEKDGMTTDGKSSDITPDPFKTTDTIPPKGDHRPGEYSELVVKAKESFRRGDLFEVVPGQKFMERCESNPSAISRRLKAINPSPYSFFINLGDQEYLVGASPEMFVRVSGRRIETCPISGTIKRGDDPIADSEQILKLLNSKKDESELTMCSDVDRNDKSRVCEPGSVKVIGRRQIEMYSRLIHTVDHIEGRLRDDMDAFDGFLSHAWAVTVTGAPKLWAMRFIEGHEKSPRAWYGGAIGMVGFNGDMNTGLTLRTIRIKDGIAEVRAGATLLNDSNPQEEEAETELKASAMISAIRDAKGTNSAATKRDAAKVGTGVKILLVDHEDSFVHTLANYFRQTGATVSTVRSPVAADVFDRFQPDLVVLSPGPGSPTDFDCKATIKAARARDLPIFGVCLGLQALAEAYGGELRQLAVPMHGKPSRIRVLEPGLVFSGLGKEVTVGRYHSIFADPATLPRDFIITAESEDGTIMGIEHAKEPVAAVQFHPESIMTLGQDAGMRMIENVVVHLTRKAKTKAA
modifications: An A. tumefaciens mutant.
On to B1, for which the amounts of tryptophan entry in the assay on soy seed is recorded as “very high amounts of tryptophan”.
